Reference: ChEMBL document CHEMBL6115017, “Discovery of DFV890, a Potent Sulfonimidamide-Containing NLRP3 Inflammasome Inhibitor” (J Med Chem, 2025)
In brackets after ≈: the same amount, converted by molar mass. Activity calls are given as the source filed them. The calls are words filed in the database; no cut-off is given here.

Assays:
[1] = Solubility of the compound in PBS at pH 7.4; format: physicochemical
[2] = Fraction unbound in Sprague-Dawley rat plasma; format: ADME, cell-free
[3] = Oral bioavailability in Sprague-Dawley rat at 5 mg/kg administered through oral gavage by LC-MS analysis; format: ADME, organism-based; settings: in vivo
[4] = Oral bioavailability in C57 BL6 mouse at 10 mg/kg administrated through oral gavage by LC-MS analysis; format: ADME, organism-based; settings: in vivo
[5] = Half life in Beagle dog at 2 mg/kg, po and 1 mg/kg, iv by LC-MS analysis; format: ADME, organism-based, Canis lupus familiaris; settings: in vivo
[6] = Oral bioavailability in Beagle dog at 2 mg/kg administrated through oral gavage by LC-MS analysis; format: ADME, organism-based, Canis lupus familiaris; settings: in vivo
[7] = Oral bioavailability in Cynomolgus monkey at 5 mg/kg administrated through oral gavage and 2 mg/kg, iv by LC-MS analysis; format: ADME, organism-based, Macaca fascicularis; settings: in vivo
[8] = AUC (infinity) in C57 BL6 mouse at 10 mg/kg, po by LC-MS analysis; format: ADME, organism-based; settings: in vivo
[9] = Cmax in C57 BL6 mouse at 10 mg/kg, po by LC-MS analysis; format: ADME, organism-based; settings: in vivo
[10] = Fraction unbound in C57 BL6 mouse plasma; format: ADME, cell-free
[11] = AUC (infinity) in Sprague-Dawley rat at 5 mg/kg, po by LC-MS analysis; format: ADME, organism-based; settings: in vivo
[12] = Cmax in Sprague-Dawley rat at 5 mg/kg, po by LC-MS analysis; format: ADME, organism-based; settings: in vivo
[13] = Cytotoxicity against mouse CT26 cells measured after 72 hrs; format: toxicity, cell-based
[14] = Lipophilicity, log D of compound in potassium phosphate buffer/octanol at pH 7.4; format: physicochemical
[15] = Thermodynamic solubility in Simulated colon solution; format: physicochemical; settings: read-out: Therm_solubility
[16] = molecular target: T1, Cytochrome P450 1A2 (Homo sapiens, UniProt P05177); experiment: Inhibition of CYP1A2 (unknown origin); format: ADME
T1 sequence (P05177 whole entry): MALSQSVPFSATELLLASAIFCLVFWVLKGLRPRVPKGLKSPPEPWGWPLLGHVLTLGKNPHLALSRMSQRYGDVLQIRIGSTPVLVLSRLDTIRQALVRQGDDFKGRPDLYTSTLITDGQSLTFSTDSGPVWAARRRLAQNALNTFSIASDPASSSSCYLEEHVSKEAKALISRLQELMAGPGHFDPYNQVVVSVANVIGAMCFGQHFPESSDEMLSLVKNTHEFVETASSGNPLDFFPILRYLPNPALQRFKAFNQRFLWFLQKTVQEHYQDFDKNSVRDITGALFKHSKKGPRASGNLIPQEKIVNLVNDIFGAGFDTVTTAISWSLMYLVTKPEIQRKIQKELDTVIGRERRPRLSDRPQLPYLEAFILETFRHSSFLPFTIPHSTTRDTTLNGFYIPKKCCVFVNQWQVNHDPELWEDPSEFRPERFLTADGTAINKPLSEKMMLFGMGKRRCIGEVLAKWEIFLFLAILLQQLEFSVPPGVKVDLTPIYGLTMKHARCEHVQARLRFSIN

[17] = molecular target: Cytochrome P450 2C19 (Homo sapiens, UniProt P33261); experiment: Inhibition of CYP2C19 (unknown origin); format: ADME
Cytochrome P450 2C19, sequence (P33261 whole entry): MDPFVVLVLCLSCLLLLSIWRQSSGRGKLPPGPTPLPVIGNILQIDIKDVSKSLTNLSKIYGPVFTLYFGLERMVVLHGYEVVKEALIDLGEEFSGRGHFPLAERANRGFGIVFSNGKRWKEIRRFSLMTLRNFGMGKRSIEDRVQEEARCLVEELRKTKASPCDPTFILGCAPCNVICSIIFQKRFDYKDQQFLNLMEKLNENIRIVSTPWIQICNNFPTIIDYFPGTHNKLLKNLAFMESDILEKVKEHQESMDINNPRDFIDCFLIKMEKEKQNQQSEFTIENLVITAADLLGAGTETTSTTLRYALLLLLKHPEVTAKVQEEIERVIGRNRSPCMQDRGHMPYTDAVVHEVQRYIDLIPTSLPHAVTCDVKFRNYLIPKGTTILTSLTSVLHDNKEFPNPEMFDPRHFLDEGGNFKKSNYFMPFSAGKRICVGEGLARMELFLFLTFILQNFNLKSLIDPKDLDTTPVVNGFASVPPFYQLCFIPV

[18] = molecular target: Cytochrome P450 2D6 (Homo sapiens, UniProt P10635); experiment: Inhibition of CYP2D6 (unknown origin); format: ADME
Cytochrome P450 2D6, sequence (P10635 whole entry): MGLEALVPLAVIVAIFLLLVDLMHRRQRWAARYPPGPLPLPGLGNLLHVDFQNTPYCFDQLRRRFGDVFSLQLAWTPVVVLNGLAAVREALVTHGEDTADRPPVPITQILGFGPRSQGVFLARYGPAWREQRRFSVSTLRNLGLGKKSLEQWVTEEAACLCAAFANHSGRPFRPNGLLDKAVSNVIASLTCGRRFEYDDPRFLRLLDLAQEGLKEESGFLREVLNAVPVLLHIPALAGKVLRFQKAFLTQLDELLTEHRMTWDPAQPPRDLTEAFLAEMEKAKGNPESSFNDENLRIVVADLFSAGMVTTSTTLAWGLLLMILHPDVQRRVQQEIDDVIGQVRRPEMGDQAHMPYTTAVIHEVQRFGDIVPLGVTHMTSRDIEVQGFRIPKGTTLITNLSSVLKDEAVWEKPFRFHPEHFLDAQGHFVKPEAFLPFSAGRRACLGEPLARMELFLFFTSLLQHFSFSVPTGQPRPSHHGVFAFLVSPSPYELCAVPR

[19] = molecular target: Cytochrome P450 3A4 (Homo sapiens, UniProt P08684); experiment: Inhibition of CYP3A4 (unknown origin); format: ADME
Cytochrome P450 3A4, sequence (P08684 whole entry): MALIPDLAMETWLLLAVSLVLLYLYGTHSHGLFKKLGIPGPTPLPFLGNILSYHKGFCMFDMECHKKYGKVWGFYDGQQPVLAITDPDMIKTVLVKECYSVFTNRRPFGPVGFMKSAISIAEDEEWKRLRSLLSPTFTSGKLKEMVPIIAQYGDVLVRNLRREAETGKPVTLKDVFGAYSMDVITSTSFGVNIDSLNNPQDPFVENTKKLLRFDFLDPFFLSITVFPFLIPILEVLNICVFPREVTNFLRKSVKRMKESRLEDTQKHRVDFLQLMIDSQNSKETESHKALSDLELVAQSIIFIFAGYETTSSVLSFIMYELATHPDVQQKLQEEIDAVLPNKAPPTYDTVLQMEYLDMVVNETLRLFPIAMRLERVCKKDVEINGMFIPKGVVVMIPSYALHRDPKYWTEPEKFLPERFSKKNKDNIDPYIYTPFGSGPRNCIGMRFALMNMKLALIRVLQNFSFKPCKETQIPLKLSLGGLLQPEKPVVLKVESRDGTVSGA

[20] = molecular target: T2, Cytochrome P450 2B6 (Homo sapiens, UniProt P20813); experiment: Inhibition of CYP2B6 (unknown origin) by time dependent inhibition assay; format: ADME
T2 sequence (P20813 whole entry): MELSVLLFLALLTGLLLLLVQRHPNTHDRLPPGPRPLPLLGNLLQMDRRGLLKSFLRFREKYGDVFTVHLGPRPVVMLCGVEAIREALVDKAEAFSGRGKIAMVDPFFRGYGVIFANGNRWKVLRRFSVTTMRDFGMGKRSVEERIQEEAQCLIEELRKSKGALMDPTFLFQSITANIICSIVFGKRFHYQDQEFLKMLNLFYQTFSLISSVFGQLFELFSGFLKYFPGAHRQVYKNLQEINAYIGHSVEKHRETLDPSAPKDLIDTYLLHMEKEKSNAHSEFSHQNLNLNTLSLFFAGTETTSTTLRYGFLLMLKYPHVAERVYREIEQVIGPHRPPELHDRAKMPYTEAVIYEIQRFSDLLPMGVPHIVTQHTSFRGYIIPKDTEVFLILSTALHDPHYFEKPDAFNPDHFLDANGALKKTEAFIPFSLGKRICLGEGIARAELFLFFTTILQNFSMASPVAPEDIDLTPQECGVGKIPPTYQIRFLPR

[21] = molecular target: Cytochrome P450 3A5 (Homo sapiens, UniProt P20815); experiment: Inhibition of CYP3A5 (unknown origin) by time dependent inhibition assay; format: ADME
Cytochrome P450 3A5, sequence (P20815 whole entry): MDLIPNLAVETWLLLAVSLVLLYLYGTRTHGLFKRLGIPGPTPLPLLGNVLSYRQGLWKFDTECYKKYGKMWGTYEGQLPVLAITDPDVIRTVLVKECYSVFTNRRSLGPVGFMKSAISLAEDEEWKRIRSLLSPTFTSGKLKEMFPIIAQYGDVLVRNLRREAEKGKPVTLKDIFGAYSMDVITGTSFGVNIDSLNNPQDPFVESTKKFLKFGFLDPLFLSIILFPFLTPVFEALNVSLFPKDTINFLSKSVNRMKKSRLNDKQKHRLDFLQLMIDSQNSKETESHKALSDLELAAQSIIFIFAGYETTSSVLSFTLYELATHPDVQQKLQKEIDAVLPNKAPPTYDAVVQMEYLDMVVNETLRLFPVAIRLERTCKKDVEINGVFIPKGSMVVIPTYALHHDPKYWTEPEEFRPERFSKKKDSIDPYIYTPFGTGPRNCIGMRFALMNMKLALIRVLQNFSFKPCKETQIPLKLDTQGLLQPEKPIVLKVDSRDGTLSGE

[22] = Mutagenicity in Salmonella typhimurium by AMES test; format: toxicity; settings: salmonella enterica subsp. enterica serovar typhimurium
[23] = tested on: THP-1; experiment: Antagonist activity against […] in PMA-primed human THP-1 cells assessed as inhibition of PrgI-induced IL-1beta release measured pretreated for 1 hr followed by induced with LFn-PrgI measured after 2 hr incubation by HTRF analysis; format: cell-based; settings: time 3.0 hrs
[24] = tested on: Macrophage; experiment: Inhibition of AIM2 inflammasome activation in mouse iMac assessed as inhibition of poly(dA:dT) induced IL-1beta release pretreated for 1 hr followed by induced with poly(dA:dT) measured after 2 hr incubation by HTRF analysis; format: cell-based; settings: time 3.0 hrs
[25] = tested on: Mus musculus; experiment: In vivo inhibition of NLRP3 dependent cytokine production in po dosed LPS-challenged C57BL/6 mouse model assessed as inhibition of LPS-induced TNFalpha production in blood pretreated for 1 hr followed by induced with LPS measured after 5 hrs by cytokine bead assay; format: functional, organism-based; settings: time 6.0 hrs
[26] = tested on: Mus musculus; experiment: In vivo anti-inflammatory activity against MSU crystal-induced gouty arthritis Balb/c mouse model assessed as reduction in neutrophil recruitment in at 0.1 to 50 mg/kg, po single dose; format: functional, organism-based; settings: dose 0.1-50 mg/kg
[27] = cells; settings: Macaca fascicularis, PBMC
Description: Antagonist activity at NLRP3 inflammasome activation in Cynomolgus monkey PBMC assessed as inhibition of LPS-stimulated IL-1beta release pretreated for 1 hr followed by induced with LPS measured after 18 hrs by HTRF analysis

CC(C)(O)c1ncc([S@](N)(=O)=NC(=O)Nc2c3c(cc4c2CCC4)CCC3)s1
solubility [1]: 21 µg/mL (≈ 49.9 µM)
fraction unbound [2]: 0.012
bioavailability [3]: 82%
bioavailability [4]: 61%
half-life [5]: 9.4 h
bioavailability [6]: 97%
bioavailability [7]: 83%
AUC(0-inf) [8]: 261 µg·h/mL
Cmax [9]: 22200 ng/mL
fraction unbound [10]: 0.015
AUC [11]: 49.125 µg·h/mL
Cmax [12]: 8860 ng/mL
EC50 at 72 h [13]: > 100 µM
logD [14]: 2.37
solubility thermodynamic [15]: 31.9 µg/mL (≈ 75.9 µM)
IC50 [16]: > 60 µM
IC50 [17]: > 60 µM
IC50 [18]: > 60 µM
IC50 [19]: > 60 µM
TDI [20]: Not_active
TDI [21]: Not_active
Activity [22]: Non-toxic
Activity [23]: inactive
Activity [24]: inactive
inhibition [25]: Dose-dependent-effect
Activity [26]: Active
IC50 [27]: 0.0061 µM
